Measurements as given in patent publication US8604016B2, “Heterocyclic inhibitors of glutaminase” (Calithera Biosciences Inc., priority 2011, dated 2013).

Biological target: recombinant form of Glutaminase 1 (GAC) (Homo sapiens, UniProt O94925)
Test: Recombinant Enzyme Assay (GAC coupled to GDH, NADH absorbance, no preincubation)
Format: biochemical
Conditions: no preincubation; read-out: GAC Delta N2 IC50 no preinc
Method in brief: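 GAC (4 nM) in Tris-HCl pH 8.0 with 150 mM K2HPO4, EDTA, BSA, DTT, plus 4 units/ml GDH and 4 mM ADP, without preincubation. Absorbance at 340 nm was read kinetically for 15 min at 20° C. Slopes (mAU/min) were compared with DMSO-only and control-compound wells on the same plate.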

| Structure (SMILES) | IC50 [nM] |
| --- | --- |
| CC(=O)OCC(=O)Nc1nnc(CCSCCc2nnc(NC(=O)CO)s2)s1 [Compound 254] | > 20000 |
| O=C(Cc1ccccc1Cl)Nc1nnc(CCSCCc2nnc(NC(=O)Cc3ccccc3Cl)s2)s1 [Compound 255] | 380 |
| COc1cccc(C(CO)C(=O)Nc2nnc(CCCCc3nnc(NC(=O)C(CO)c4cccc(OC)c4)s3)s2)c1 (centres unmarked) [Compound 257] | 120 |
| COc1cccc(C(CO)C(=O)Nc2nnc(CCSCc3nnc(NC(=O)C(CO)c4cccc(OC)c4)s3)s2)c1 (centres unmarked) [Compound 258] | 190 |
| COc1cccc(CC(=O)Nc2nnc(CCSCCc3nnc(NC(=O)Cc4cccc(OC)c4OC)s3)s2)c1OC [Compound 259] | 230 |
| COc1cccc(CC(=O)Nc2nnc(CCCCc3nnc(NC(=O)Cc4cccc(OC)c4OC)s3)s2)c1OC [Compound 260] | 150 |
| CC(C(=O)Nc1nnc(CCSCCc2nnc(NC(=O)C(C)c3ccccc3Cl)s2)s1)c1ccccc1Cl (centres unmarked) [Compound 261] | 700 |
| Cc1ccccc1C(C)C(=O)Nc1nnc(CCSCCc2nnc(NC(=O)C(C)c3ccccc3C)s2)s1 (centres unmarked) [Compound 262] | 360 |
| COc1ccccc1C(C)C(=O)Nc1nnc(CCSCCc2nnc(NC(=O)C(C)c3ccccc3OC)s2)s1 (centres unmarked) [Compound 263] | 320 |
| COc1ccccc1CC(=O)Nc1nnc(CCCCc2nnc(NC(=O)Cc3ccccc3OC)s2)s1 [Compound 264] | 72 |
| COc1ccc(OC)c(CC(=O)Nc2nnc(CCCc3nnc(NC(=O)Cc4cc(OC)ccc4OC)s3)s2)c1 [Compound 265] | 270 |
| CC(=O)NCC(C(=O)Nc1nnc(CCCCc2nnc(NC(=O)C(CNC(C)=O)c3ccccc3)s2)s1)c1ccccc1 (centres unmarked) [Compound 266] | 2200 |
| O=C(Cc1cccc(OCCN2CCOCC2)c1)Nc1nnc(CCSCc2nnc(NC(=O)Cc3cccc(OCCN4CCOCC4)c3)s2)s1 [Compound 267] | 610 |
| O=C(Cc1ccc2ncccc2c1)Nc1nnc(CCSCCc2nnc(NC(=O)Cc3ccc4ncccc4c3)s2)s1 [Compound 268] | 600 |
| O=C(Cc1ccc2ncccc2c1)Nc1nnc(CCCCc2nnc(NC(=O)Cc3ccc4ncccc4c3)s2)s1 [Compound 269] | 260 |
| COc1ccc(OC)c(CC(=O)Nc2nnc(CCCCc3nnc(NC(=O)Cc4ccccc4)s3)s2)c1 [Compound 271] | 100 |
| CC(C)[C@H](NC(=O)OC(C)(C)C)C(=O)OCC(C(=O)Nc1nnc(CCCCc2nnc(NC(=O)C(COC(=O)[C@@H](NC(=O)OC(C)(C)C)C(C)C)c3ccccc3)s2)s1)c1ccccc1 (some centres unmarked) [Compound 272] | > 20000 |
| O=C(Cc1cccc(F)c1)Nc1nnc(CCCCc2nnc(NC(=O)Cc3cccc(F)c3)s2)s1 [Compound 273] | 140 |
| CC(C(=O)Nc1nnc(CCCCc2nnc(NC(=O)C(C)c3ccccc3Cl)s2)s1)c1ccccc1Cl (centres unmarked) [Compound 274] | 750 |
| CC1(C)OCC(C(=O)Nc2nnc(CCCCc3nnc(NC(=O)C4(c5ccccc5)COC(C)(C)O4)s3)s2)(c2ccccc2)O1 (centres unmarked) [Compound 277] | > 20000 |
| O=C(Nc1nnc(CCCCc2nnc(NC(=O)C(O)(CO)c3ccccc3)s2)s1)C(O)(CO)c1ccccc1 (centres unmarked) [Compound 278] | 380 |
| CC1(C)OCC(C(=O)Nc2nnc(CCCCc3nnc(NC(=O)Cc4ccccc4)s3)s2)(c2ccccc2)O1 (centres unmarked) [Compound 279] | 680 |
| O=C(Cc1ccccc1)Nc1nnc(CCCCc2nnc(NC(=O)C(O)(CO)c3ccccc3)s2)s1 (centres unmarked) [Compound 280] | 290 |
| C=C(C(=O)Nc1nnc(CCCCc2nnc(NC(=O)C(COC(=O)CCN3CCOCC3)c3ccccc3)s2)s1)c1ccccc1 (centres unmarked) [Compound 281] | 740 |
| O=C(Cc1ccccc1Br)Nc1nnc(CCCCc2nnc(NC(=O)Cc3ccccc3Br)s2)s1 [Compound 282] | 82 |

| Structure (SMILES) | IC50 [nM] |
| --- | --- |
| O=C(Cc1ccccc1Br)Nc1nnc(CCSCCc2nnc(NC(=O)Cc3ccccc3Br)s2)s1 [Compound 283] | 660 |
| O=C(Cc1cccc(Br)c1)Nc1nnc(CCCCc2nnc(NC(=O)Cc3cccc(Br)c3)s2)s1 [Compound 284] | > 20000 |
| O=C(Cc1cccc(-n2cccn2)c1)Nc1nnc(CCCCc2nnc(NC(=O)Cc3cccc(-n4cccn4)c3)s2)s1 [Compound 285] | 190 |
| O=C(Nc1nnc(CCCCc2nnc(NC(=O)C(O)c3ccccc3Br)s2)s1)C(O)c1ccccc1Br (centres unmarked) [Compound 287] | 570 |
| CC(CCC(C)c1nnc(NC(=O)Cc2ccccc2)s1)c1nnc(NC(=O)Cc2ccccc2)s1 (centres unmarked) [Compound 289] | 32000 |
| O=C(Cc1ccccc1)Nc1nnc(CCCCc2nnc(NC(=O)[C@H]3CCCC[C@@H]3C(=O)c3ccccc3)s2)s1 [Compound 290] | 800 |
| CC(C)[C@H](N)C(=O)OCC(C(=O)Nc1nnc(CCCCc2nnc(NC(=O)C(COC(=O)[C@@H](N)C(C)C)c3ccccc3)s2)s1)c1ccccc1 (some centres unmarked) [Compound 291] | 1500 |
| O=C(Cc1ccccc1F)Nc1nnc(CCCCc2nnc(NC(=O)Cc3ccccc3F)s2)s1 [Compound 292] | 120 |
| O=C(Cc1c(F)cccc1F)Nc1nnc(CCCCc2nnc(NC(=O)Cc3c(F)cccc3F)s2)s1 [Compound 293] | 240 |
| O=C(Cc1ccccc1F)Nc1nnc(CCSCCc2nnc(NC(=O)Cc3ccccc3F)s2)s1 [Compound 294] | 200 |
| Cc1nccn1Cc1cccc(CC(=O)Nc2nnc(CCCCc3nnc(NC(=O)Cc4cccc(Cn5ccnc5C)c4)s3)s2)c1 [Compound 296] | 100 |
| CN(C)CC(=O)Nc1nnc(CCCCc2nnc(NC(=O)Cc3ccccc3)s2)s1 [Compound 297] | 6400 |
| O=C(Cc1c(F)cccc1F)Nc1nnc(CCSCCc2nnc(NC(=O)Cc3c(F)cccc3F)s2)s1 [Compound 298] | 730 |
| CCOc1ccccc1CC(=O)Nc1nnc(CCSCCc2nnc(NC(=O)Cc3ccccc3OCC)s2)s1 [Compound 299] | 330 |
| CCOc1ccccc1CC(=O)Nc1nnc(CCCCc2nnc(NC(=O)Cc3ccccc3OCC)s2)s1 [Compound 300] | 160 |
| O=C(OCC(C(=O)Nc1nnc(CCCCc2nnc(NC(=O)C(COC(=O)C3CCN(C(=O)OCc4ccccc4)CC3)c3ccccc3)s2)s1)c1ccccc1)C1CCN(C(=O)OCc2ccccc2)CC1 (centres unmarked) [Compound 301] | > 20000 |
| O=C(OCC(C(=O)Nc1nnc(CCCCc2nnc(NC(=O)C(COC(=O)C3CCNCC3)c3ccccc3)s2)s1)c1ccccc1)C1CCNCC1 (centres unmarked) [Compound 302] | 7000 |
| O=C(Nc1nnc(CCCCc2nnc(NC(=O)C(F)(F)c3ccccc3)s2)s1)C(F)(F)c1ccccc1 [Compound 303] | > 20000 |
| O=C(Cc1ccccc1)Nc1nnc(CCCCc2nnc(NC(=O)[C@@H]3CCCC[C@H]3C(O)c3ccccc3)s2)s1 (some centres unmarked) [Compound 304] | 1200 |
| O=C(Cc1ccccn1)Nc1nnc(CCSCCc2nnc(NC(=O)Cc3ccccn3)s2)s1 [Compound 308] | 600 |
| O=C(Cc1ccccc1)Nc1nnc(CCCCc2nnc(NC(=O)Cc3cccnc3)s2)s1 [Compound 309] | 110 |
| O=C(Cc1cccnc1)Nc1nnc(CCCCc2nnc(NC(=O)Cc3cccnc3)s2)s1 [Compound 311] | 200 |
| O=C(Cc1cccc(-c2cccnc2)c1)Nc1nnc(CCCCc2nnc(NC(=O)Cc3cccc(-c4cccnc4)c3)s2)s1 [Compound 312] | > 20000 |
| O=C(Cc1ccccc1)Nc1nnc(CCCCc2nnc(NC(=O)C(CO)c3ccccc3)s2)s1 (centres unmarked) [Compound 316] | 190 |
| COc1cc(C(O)C(=O)Nc2nnc(CCCCc3nnc(NC(=O)C(O)c4ccc(O)c(OC)c4)s3)s2)ccc1O (centres unmarked) [Compound 319] | 640 |
